Experimental data taken from the CheMixHub viscosity set.
“And” between values parts separate entries of the source, which are not always exact repeats. Equal values may be shown once.

Assays:
[1] = xn = mol fraction of the nth substance listed

CCC[N+]1(C)CCCC1.O=S(=O)([N-]S(=O)(=O)C(F)(F)F)C(F)(F)F
viscosity [mPa·s]
Conditions	293.15 K	298.15 K	303.15 K	308.15 K	313.15 K	318.15 K	323.15 K
101 kPa	–	–	–	–	34.4	–	–
101.3 kPa	76.4	61.2	49.8	41.1	34.4	29.2	25

CCCC(=O)O
viscosity
Conditions	293.15 K	303.15 K	313.15 K	323.15 K
101 kPa	1.778 mPa·s and 1.54 mPa·s and 1.78 mPa·s	1.296 mPa·s and 1.331 mPa·s and 1.33 mPa·s	1.12 mPa·s	0.9885 mPa·s
101.33 kPa	1.623 mPa·s	–	1.184 mPa·s	–

CCOC(=O)C(=O)OCC
101 kPa
Conditions	viscosity [mPa·s]
313.15 K	1.361
323.15 K	1.154

C1CCNCC1
101 kPa
Conditions	viscosity [mPa·s]
298.15 K	1.31
303.15 K	1.21
323.15 K	0.757

CC(=O)OC(C)C
101 kPa
Conditions	viscosity
298.15 K	0.49 mPa·s
308.15 K	0.4342 mPa·s and 0.4323 mPa·s

CCCC(C)O (stereo not given)
Conditions	viscosity
293.15 K, 101.33 kPa	3.376 mPa·s
298.15 K, 100 kPa	3.426 mPa·s
298.15 K, 101 kPa	3.38 mPa·s and 3.2 mPa·s
298.15 K, 101.3 kPa	3.45 mPa·s
303 K, 101.33 kPa	2.677 mPa·s
303.15 K, 101 kPa	2.739 mPa·s
303.15 K, 101.33 kPa	2.763 mPa·s and 2.888 mPa·s and 2.887 mPa·s
308.15 K, 101 kPa	2.312 mPa·s
308.15 K, 101.3 kPa	2.32 mPa·s
313 K, 101.33 kPa	2.014 mPa·s
313.15 K, 101 kPa	1.943 mPa·s
313.15 K, 101.3 kPa	1.92 mPa·s
313.15 K, 101.33 kPa	2.017 mPa·s
318.15 K, 101 kPa	1.674 mPa·s
323.15 K, 101 kPa	1.479 mPa·s
323.15 K, 101.33 kPa	1.521 mPa·s

C#CC(C)(C)O
101.32 kPa
Conditions	viscosity [mPa·s]
308.15 K	2.09
313.15 K	1.775
318.15 K	1.551
323.15 K	1.347

C1CC[C@H]2CCCC[C@H]2C1
viscosity [mPa·s]
Conditions	293.15 K	303.15 K	313.15 K	323.15 K
100 kPa	–	2.704	2.214	1.861
101 kPa	3.337	2.444	–	–
101.3 kPa	3.361	2.641	–	–

CCCCCCn1cc[n+](C)c1C.O=S(=O)([N-]S(=O)(=O)C(F)(F)F)C(F)(F)F
100 kPa
Conditions	viscosity [mPa·s]
293.15 K	172
298.15 K	129
303.15 K	99
308.15 K	78

CCCC[N+](C)(CCCC)CCCC.N#C[N-]C#N
101 kPa
Conditions	viscosity [mPa·s]
293.15 K	497.7
303.15 K	238.9
313.15 K	127.3
323.15 K	74.87

CCCCCCCC[n+]1ccc2ccccc2c1.O=S(=O)([N-]S(=O)(=O)C(F)(F)F)C(F)(F)F
101 kPa
Conditions	viscosity
298.15 K	369.3 mPa·s and 369.3 mPa·s
308.15 K	191 mPa·s and 191 mPa·s
318.15 K	108.7 mPa·s and 108.7 mPa·s

CC[N+](CC)(CC)CC.[OH-]
viscosity [mPa·s]
Conditions	298.15 K	303.15 K	308.15 K	313.15 K
100 kPa	4.94	4.72	4.43	4.27
101 kPa	4.94	4.72	4.43	4.27

CCCCBr
101 kPa
Conditions	viscosity
295.95 K	0.6116 mPa·s
298.15 K	0.606 mPa·s
303.45 K	0.5621 mPa·s
308.15 K	0.552 mPa·s and 0.5235 mPa·s
313.25 K	0.5057 mPa·s
318.15 K	0.502 mPa·s
323.15 K	0.476 mPa·s

CC[N+](CC)(CC)CC.[OH-] + CS(C)=O
viscosity [mPa·s], [1], 100 kPa
Conditions	298.15 K	303.15 K	308.15 K	313.15 K
x1 = 0.0142	2.08	1.9	1.77	1.67
x1 = 0.0405	2.24	2.07	1.96	1.88
x1 = 0.0693	2.45	2.29	2.18	2.09
x1 = 0.0995	2.65	2.49	2.38	2.29
x1 = 0.1314	2.89	2.72	2.62	2.52
x1 = 0.165	3.11	2.95	2.84	2.76
x1 = 0.1925	3.29	3.12	3	2.92
x1 = 0.2381	3.57	3.41	3.3	3.24
x1 = 0.2988	3.9	3.75	3.66	3.58
x1 = 0.3654	4.23	4.1	4	3.95
x1 = 0.4134	4.45	4.34	4.22	4.18
x1 = 0.4647	4.66	4.56	4.45	4.41
x1 = 0.5486	4.94	4.85	4.73	4.71
x1 = 0.6421	5.17	5.08	4.96	4.92
x1 = 0.7106	5.37	5.17	5.02	5
x1 = 0.7848	5.3	5.2	5.03	4.99
x1 = 0.8653	5.23	5.12	4.96	4.89
x1 = 0.9531	5.08	4.89	4.67	4.54

CCOC(=O)C(=O)OCC + CCCCCCCCO
[1], 303.15 K, 101.33 kPa
Conditions	viscosity [mPa·s]
x1 = 0.0949	4.702
x1 = 0.2003	3.667
x1 = 0.2883	3.152
x1 = 0.4	2.636
x1 = 0.5026	2.296
x1 = 0.6064	2.027
x1 = 0.6984	1.86
x1 = 0.7809	1.74
x1 = 0.8763	1.638

CC(CC(C)(C)C)CC(C)(C)CC(C)(C)C (stereo not given) + CCCCCCCCCCCC
Conditions	viscosity [mPa·s]
[1], 323.15 K, 100 kPa, x1 = 0.279	1.09

CC(CC(C)(C)C)CC(C)(C)CC(C)(C)C (stereo not given) + CCCCCCCCCCCCCCCC
[1], 298.15 K, 101.33 kPa
Conditions	viscosity [mPa·s]
x2 = 0.0974	3.252
x2 = 0.2011	3.181
x2 = 0.3015	3.128
x2 = 0.3995	3.09
x2 = 0.4995	3.064
x2 = 0.6002	3.05
x2 = 0.7004	3.045
x2 = 0.8	3.049

CCOC(=O)C(=O)OCC + CCOC(C)=O
viscosity [mPa·s], [1], 101 kPa
Conditions	x1 = 0.0949	x1 = 0.196	x1 = 0.3019	x1 = 0.4065	x1 = 0.5006	x1 = 0.6036	x1 = 0.6954	x1 = 0.7993	x1 = 0.8948
303.15 K	0.458	0.535	0.636	0.736	0.844	0.978	1.107	1.265	1.428
313.15 K	0.423	0.486	0.56	0.647	0.734	0.847	0.95	1.081	1.203
323.15 K	0.381	0.436	0.499	0.571	0.646	0.74	0.825	0.928	1.028

CCCCBr + Cc1cc(C)cc(C)c1
[1], 308.15 K, 101 kPa
Conditions	viscosity [mPa·s]
x2 = 0.0991	0.5234
x2 = 0.1968	0.5242
x2 = 0.3043	0.5299
x2 = 0.406	0.5323
x2 = 0.4969	0.5372
x2 = 0.5975	0.5416
x2 = 0.7014	0.5482
x2 = 0.7972	0.5513
x2 = 0.8984	0.5568
